SMILES strings stand for the structures.

The record followed here is patent US9980919B2, “Preparation of pH-responsive nanoparticles and promoted delivery of anticancer drugs into deep tumor tissues and application thereof” (NATIONAL TSING HUA UNIVERSITY, priority 2015, dated 2018).

Format in all cases: in vivo, C57BL/6J mice
In data set [1] the test system is TRAMP-C1 tumor. Description: ICG fluorescence accumulated in organs and tumor of TRAMP-C1 tumor-bearing mice (IVIS). As to conditions: 48 hours after tail vein injection; ICG 1.6 mg/kg. On the procedure:
(§1) Please refer to FIGS. 12 and 14. […] To establish tumor model, 2×10^7 TRAMP-C1 cells were subcutaneously injected into the right thigh of mice. Two weeks post-inoculation, the low permeability tumor model was established. Tumor volume (V) was calculated as follows: V=L×W^2/2, where W is the tumor measurement at the widest point and L the tumor dimension at the longest point. […] The fluorescence signals of ICG (Ex. 745 nm and Em. 810 nm) at 2, 4, 6, 24 and 48 h post-injection were collected on the IVIS. The treated mice were then sacrificed and the major organs harvested for individual organ imaging by IVIS. After tail vein injection for 48 hours and observation in vivo experiments, the mouse was sacrificed and its major organs and tumors taken for detecting ICG fluorescent performance of each organ using a non-invasive in vivo imaging system (IVIS).

The test system of data set [2] is TRAMP-C1 tumor. The data set is described as follows: Tumor growth inhibition (relative tumor volume over 15 days) in TRAMP-C1 tumor-bearing mice. Particulars: with NIR laser (+laser). On the procedure:
as §1
(§2) Please refer to FIG. 15. FIG. 15 is a time—temperature figure of the pH-responsive ICG/DOX-loaded NHTPNs of an embodiment in the instant disclosure. […] 6 hours post-injection, the mice (5 in each group) were irradiated at the tumor sites with 808 nm laser (1.0 W/cm^2) for 5 min. The tumor volumes of various groups were measured daily and normalized against the original volumes to assess the antitumor efficacy. The tumor local temperature was monitored by infrared thermal imaging camera.

The test system of data set [3] is TRAMP-C1 tumor. The data set is described as follows: Tumor local temperature under 808 nm NIR laser irradiation (infrared thermal imaging camera). As to conditions: 6 hours post-injection; 808 nm laser 1.0 W/cm^2, 5 min; ICG 1.6 mg/kg I.V. On the procedure:
as §2

On to `CC1(C)C(/C=C/C=C/C=C/C=C2\N(CCCCS(=O)(=O)O)c3ccc4ccccc4c3C2(C)C)=[N+](CCCCS(=O)(=O)[O-])c2ccc3ccccc3c21` [Free ICG, indocyanine green], for which, in the data set on TRAMP-C1 tumor [1], the “ICG fluorescent expression in the tumor” value is “no fluorescent expression in the tumor” and the “organ in which the ICG fluorescence is expressed” value is “mostly expressed in the liver”. Moreover, in the data set on TRAMP-C1 tumor [2], the “tumor growth inhibition effect” value is “no significant tumor growth inhibition effect”. The “highest temperature in the tumor” value in the data set on TRAMP-C1 tumor [3] worked out at 41.4 °C.
